Experimental data: patent US20110263657A1, “DIARYL UREAS FOR TREATING HEART FAILURE” (BAYER SCHERING PHARMA AKTIENGESELLSCHAFT, priority 2008, published 2011)

Tested on: mouse models of pressure-induced heart failure
Assay: Pressure-induced heart failure (TAC) in mice, organ weights and hemodynamic measurements
Type: in vivo
Details: banded (TAC) mice, 50 mg/kg/d po for 4 weeks
Method: The effects of the compound and drug combinations according to the invention are tested in vivo in mouse models of pressure-induced heart failure.
Methods: Pressure-Induced Heart Failure (TAC)
Surgery: 8 weeks old mice were pre-anesthetized for 2-3 min in an isofluran flooded box and then intubated (tubus of own fabrication).
Mice were placed on the right side on a heating panel and the tubus was connected to a ventilation pump (Mini Vent Type 845, Hugo Sachs Electronic) which allowed the further ventilation of mice with isofluran (1.5%).
Mice were prepared for the surgery: eyes moistened with Bepanthen® salve (pharmaceutical ointment containing dexpanthenol), operation field shaved and disinfected, mice fixated with tape in a right lateral position.
The skin cut was placed ca 2 mm behind the left elbow and was 5 mm length and vertical. Pectoral muscles were separated until ribs. A wound-spreader was placed between the 2nd and the 3rd rib and thymus was visualized. After pushing by side the thymus V. cava, A pulmonalis and Aorta with both carotid branching were viewed. With help from a curved polished vessel catheter a ligation thread was placed around the aorta between both carotid branching. The aorta was constricted to a diameter of 0.6 mm with help from a splint.
By sham operated mice the same procedure was effectuated but the aorta was not constricted.
Before they woke up, mice were given 5 mg/5 ml/kg sc Rimadyl® (Pfizer, Carprofen), wound was cleaned with […] and coated with antibiotic salve (Neomycin® salve) and Bepanthen® salve was removed from the eyes.
After awaking from anesthesia the tubus was taken off and mice were placed in their cages heated with heating panels for at least half an hour.
Mice were divided into 3 groups (n=10-12): • sham operated with vehicle treatment • placebo with vehicle treatment • Sorafenib: 50 mg/kg/d in vehicle
Substances were dissolved in 10% Ethanol, 40% Solutol and 50% water.
Application volumes: 10 ml/kg/d po
Treatment: begin 1 day after surgery for 4 weeks
After 4 weeks of treatment hemodynamic measurement were performed and mice were sacrificed.
Hemodynamic measurements: Mice were pre-anesthetized for 2-3 min in an isofluran flooded box, followed by fixation in an anesthesia mask (continuous flow of 1.5% isofluran by spontaneous breathing of the mouse). Mice were placed on the back on a heating panel.
Throats were shaved and the skin incised on the median line. The right A. carotis was prepared and ligated cranial. A tip-catheter (Millar Micro-Tip-Transducer, 1.0 oder 1.4 French, Firma HSE) was introduced in the right A. carotis and pushed into the left ventricle and fixated. There, pressure of the left ventricle was registered for a few minutes (after reaching a steady state) over the catheter and analyzed by the Millar Chart 5 software. After the measurements blood samples were taken. Finally organs (heart, lung, liver, right kidney) were collected.

CNC(=O)c1cc(Oc2ccc(NC(=O)Nc3ccc(Cl)c(C(F)(F)F)c3)cc2)ccn1 [Sorafenib, 4{4-[3-(4-chloro-3-trifluoromethylphenyl)-ureido]-phenoxy}-pyridine-2-carboxylic acid methyl amide]
Relaxation constant tau, increment: inhibited
Heart weight/body weight ratio (hypertrophy) (compared to sham operated mice): completely inhibited
Left ventricular weight/body weight ratio (hypertrophy) (compared to sham operated mice): completely inhibited
Left ventricular end diastolic pressure, augmentation compared to sham operated mice (p<0.05 compared to placebo): 7%
Left ventricular systolic pressure, augmentation compared to sham operated mice (p<0.05 compared to placebo): 8%
